# Key:
# Format in all cases: cell-based
# [1] = molecular target: T1, FXR (Homo sapiens, UniProt Q96RI1); assay: Yeast one-hybrid assay of FXR antagonistic activity in HEK-293T cells
# T1 construct: a fusion plasmid of Gal4 DBD-NR-LBD, which included PPARα, PPARβ, PPARγ, RXRα, RXRβ, RXRγ, LXRα, LXRβ, GPBAR, PXR, and FXR; expressed in transfected cells; host or cells: HEK-293T
# T1 sequence (Q96RI1 262-486 limits assumed): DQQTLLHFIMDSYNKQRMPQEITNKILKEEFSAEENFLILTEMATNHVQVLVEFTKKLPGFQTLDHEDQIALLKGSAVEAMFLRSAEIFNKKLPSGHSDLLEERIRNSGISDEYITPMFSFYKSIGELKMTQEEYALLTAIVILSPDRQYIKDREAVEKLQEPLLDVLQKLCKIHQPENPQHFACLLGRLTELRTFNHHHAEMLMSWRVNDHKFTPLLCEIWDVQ
# Description: Cell counting: HEK-293T cells in logarithmic growth phase were digested with 0.25% trypsin, collected, and centrifuged. The trypsin-containing medium was discarded, and 2 mL of fresh phenol red-free DMEM medium containing 5% fetal bovine serum was added. The cells were then mixed with the medium to prepare a cell suspension and counted on a cell counting plate.
# Cell plating: A determined number of cells were taken from the cell suspension, diluted with phenol red-free DMEM medium containing 5% fetal bovine serum, and plated at a concentration of 10,000 cells per well (100 µL medium) in a 96-well plate. The plate was then incubated at 37 °C and 5% CO2 for 24 h.
# Cell transfection: Fresh phenol red-free DMEM medium was taken in a sterile environment, and the previously extracted pFXR-Binding plasmid and PG4.35[luc2P-9XGA4UAS-Hygro] plasmid were added. The mixture was stirred and allowed to stand at 23 °C for 3 min. Then, a 3% amount of transfection reagent was added to the mixture, and it was allowed to stand at 23 °C for 15 min. The mixture was then added to the 96-well plate at a volume of 10 µL per well and incubated at 37 °C in a 5% CO2 environment for 24 h.
# The OA derivatives were prepared as 10 mM DMSO stock solutions and further diluted in a concentration gradient, with 10 µL added to each well. The final concentrations of the derivatives ranged from 10 µM to 0.03 µM, with 7 concentration gradients using […] dilution. The test was set with 3 duplicated wells.
# Antagonism activity test: The firefly-Renilla Dual Fluorescence Assay Kit (Promega, #E2940, Madison, WI, USA) was used to measure the antagonism activity of the OA derivatives. Firstly, the firefly fluorescence reagent was added to the 96-well plate at a volume of 70 µL per well and shaken in darkness for 15 min. Then, the fluorescence intensity was measured at a wavelength of 645 ± 30 nm in a microplate reader (BioTek, Winooski, VT, USA). Next, the volume of Renilla reagent was added to the 96-well plate at a volume of 70 µL per well and shaken in darkness for 15 min. The fluorescence intensity was then measured at a wavelength of 525 ± 20 nm.
# Data processing: The fluorescence data of firefly were divided by the fluorescence data of Renilla to remove errors, and the antagonism efficiency was calculated using the following formula: antagonism efficiency (%) = [1 − (FCompds. − FDMSO)/(FCDCA − FDMSO)] × 100%. In the formula, F represents fluorescence intensity. The antagonistic efficiency data were obtained as a concentration–effect curve using Graphpad Prism 8.0 software, and the corresponding IC50 value was calculated.
# [2] = molecular target: T1, FXR; assay: NR selectivity one-hybrid assay in HEK-293T cells (FXR); settings: FXR agonist CDCA (50 μM)
# Description: (§1) To assess the compound’s specificity, the mammalian one-hybrid assay was conducted. In this assay, HEK-293T cells were co-transfected with a fusion plasmid of Gal4 DBD-NR LBD (comprising RXRα, RXRβ, RXRγ, PPARα, PPARβ, PPARγ, LXRα, LXRβ, GPBAR, and PXR) and the UAS-TK-Luc reporter, followed by treatment with various concentrations of the compound. The positive control consisted of the corresponding nuclear receptor agonist, and the concentration used in the experiment was set to the EC50 of the agonist.
# (§2) Figure 3 Compound 10b selectively antagonized FXR. The impact of compound 10b on various NRs was evaluated using a […] one-hybrid assay in HEK-293T cells. The cells were transiently co-transfected with a fusion plasmid of Gal4 DBD-NR-LBD, which included PPARα, PPARβ, PPARγ, RXRα, RXRβ, RXRγ, LXRα, LXRβ, GPBAR, PXR, and FXR, in combination with the UAS-TK-Luc reporter. […] The values are expressed as the means ± SE of three independent experiments. *: p < 0.05 vs. RA (relative agonist).
# [3] = molecular target: T2, LXRα (Homo sapiens, UniProt Q13133); assay: NR selectivity one-hybrid assay in HEK-293T cells (LXRα); settings: activated by GW3965
# T2 construct: a fusion plasmid of Gal4 DBD-NR LBD (comprising RXRα, RXRβ, RXRγ, PPARα, PPARβ, PPARγ, LXRα, LXRβ, GPBAR, and PXR); expressed in transfected cells; host or cells: HEK-293T
# T2 sequence (Q13133 209-447 limits assumed): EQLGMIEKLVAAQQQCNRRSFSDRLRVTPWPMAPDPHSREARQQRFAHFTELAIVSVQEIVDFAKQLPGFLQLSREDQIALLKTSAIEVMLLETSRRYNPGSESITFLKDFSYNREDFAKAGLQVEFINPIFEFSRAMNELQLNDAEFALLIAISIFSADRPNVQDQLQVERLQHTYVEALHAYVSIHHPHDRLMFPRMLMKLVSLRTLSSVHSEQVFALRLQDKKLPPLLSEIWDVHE
# Description: as §1, §2
# [4] = tested on: RXRα, RXRβ, RXRγ, LXRα, LXRβ, PXR, PPARα, PPARβ, PPARγ, and GPBAR; assay: NR selectivity one-hybrid assay in HEK-293T cells (panel of metabolic NRs)
# Description: as §1, §2
# [5] = tested on: LX-2 cells; assay: Western blot of liver-fibrosis-associated proteins in LX-2 cells and HSC-T6 cells; settings: 20 μM
# Description: The total protein concentration in cell and liver tissue lysates was determined using a BCA kit (Beyotime Biotechnology, P0009). Following immune precipitation with appropriate antibodies overnight at 4 °C and incubation with Protein A/G Plus-agarose (Santa Cruz Biotechnology, sc-2003), immunocomplexes or lysates were subjected to SDS-PAGE gel electrophoresis and transferred onto PVDF membranes. Target proteins were detected using specific primary antibodies and an appropriate secondary antibody, with electrochemiluminescence carried out according to the manufacturer’s instructions with a Tanon 5200 imaging system (Shanghai, China). The internal control utilized was GADPH.
# (A–E) The LX-2 cells underwent a 24 h treatment of 2 ng·mL^−1 TGFβ1, with or without varying concentrations of candidate compounds, following FBS starvation. […] GAPDH/GAPDH was used as the loading control. The mean ± SD values were obtained from three independent assays. […] ANOVA was followed by Tukey’s test for statistical analysis.
smiles,measurement,setting,value
"CC1(C)CCC2(C(=O)O)CCC3(C)C(C(OC(=O)CCC(NC(=O)OC(C)(C)C)C(=O)OC(C)(C)C)CC4C5(C)CCC(O)C(C)(C)C5CCC43C)C2C1 [Compound 10b, 3β-hydroxy-12β-(4′-((tert-butoxycarbonyl)amide)-5′-(tert-butoxy)-L-glutamte)oxy-13H-olean-28-oic acid]",IC50,"[1]; HEK-293T cells, CDCA (50 μM) as agonist, mean ± SE of three independent tests",440 ± 150 nM
same,times more potent than 10d,[1]; ratio of IC50 values,8.3
same,antagonistic effects against FXR,[2],> 90%
same,antagonistic effects against LXRα,[3],10–20%
same,agonistic effect for tested NRs or GPBAR,[4],no agonistic effect
same,content of protein TGFβ1,[5],reduced
same,content of protein TIMP1,[5],reduced
same,content of protein a-SMA,[5],reduced

# — article PMC10221314 (Pharmaceuticals, 2023)
